Measurements taken from US20030118983A1, “Rapid screening procedure for inflammation mediators” (priority 2000, published 2003).
“And” between values parts separate entries of the source, which are not always exact repeats. Identical values can stand only once.

Tests used:
[1] = test system: PMNs; test: HE-induced DNA strand breaks in PMNs (dUTP nick end labeling); assay type: cell-based, human; conditions: for effect on HE-induced DNA strand breaks: at HE-induced peak values (3-6 nM)
Method: HE-induced DNA strand breaks in PMNs were measured by flow cytometry using the tdt-mediated dUTP nick end labeling assay, In Situ Cell Death Detection Kit (Boehringer Mannheim, Indianapolis, Ind.) according to manufacturer's instructions. PMNs were incubated with L-NMMA, 17β-E2 receptor antagonists, TNFα, and varying concentrations of HE as described in the above HE-induced DCFH oxidation experiments with the exception that HE incubation time was 2 h instead of 40 min.
In Vitro measurements of oxidant production and cellular damage.

[2] = test system: PMNs; test: HE and 17β-E2 effects on intracellular oxidants (NO) in PMNs, DCFH oxidation; assay type: cell-based, human; conditions: for effect on HE-induced intracellular oxidants (NO): ICI 182,780 0.1 nM
Method: HE effects on intracellular levels of oxidants in PMNs were measured using a previously reported cytofluorometric procedure.
(§4) The purity of PMNs and lymphocytes was greater than 88% and 95%, respectively, and their viability, as determined by trypan blue-exclusion, was greater than 90%.

[3] = test system: PMNs; test: Heme protein effect on DCFH oxidation in unstimulated, LPS and TNFα-, and PMA-stimulated PMNs, with or without NOS inhibitors, SOD or antioxidants; assay type: cell-based, human; conditions: PMA-stimulated PMNs with arginine
Method: DCFH-loaded PMNs were incubated with and without N-methyl-L-arginine (L-NMMA; 5 mM; Calbiochem, San Diego, Calif.) and heme proteins (0.3-1000 μg/mL) at 37 ° C. for 10 minutes. […] In unstimulated and LPS and TNFα -stimulated PMNs, the treatments were oxyMb, or oxyMb+L-NMMA (5 mM). […] RBC cell membranes were ruptured using a micro-ultrasonic cell disrupter, Kontes, Janke and Kukel Gmbh and CO. (Stauten, Germany). […] OxyMb was prepared by mixing excess sodium dithionite with Mb for 1 h and inorganic sulfur compounds were removed by dialyzing in HBSS buffer for 3 h. Percent iron in the ferric state in non-dithionite treated oxyMb or oxyHb was not assessed. […] […] cross-linked Hb was a gift from Walter Reed Army Institute of Research. […] Also, various concentrations of bovine liver Cu, Zn SOD (30-10,000 U/mL; 8-2640 μg/mL) and 30 μg/mL oxyMb were incubated with PMA-stimulated PMNs pretreated with and without L-NMMA. Flow cytometric measurements of oxidant-induced DCF fluorescence were performed as described above.

[4] = test system: MNCs; test: Intracellular oxidants (DCF) in MNCs activated with cytokine cocktail and hemoglobin; assay type: cell-based, human; conditions: for dampening effect on oxidant production: cytokine and hemoglobin activation, 10 μM steroid
Method: (§1) PMNs and MNCs were harvested from blood via centrifugation with equal volumes of Polymorphprep, GIBCO (Grand Island, N.Y.) at 550×g for 35 minutes at 20° C. […] Replicate experiments were conducted with three to five donors from a pool of six consented male adults.
(§2) PMNs (10,000,000/ml) and MNCs (20,000,000/ml) were loaded with 2,7-dichlorodihydrofluorescein-diacetate (DCFH-DA) (2 μM) (Molecular Probes; Eugene Oreg.) in HBSS for 30 minutes at 37° C. in a water bath. Non fluorescent DCFH is oxidized to fluorescent DCF by a variety of oxidants. The approach is sensitive, reproducible, and capable of measuring wide concentration range of intracellular oxidants. […] Treated PMNs or MNCs were incubated for 1 or 5 h in HBSS amended with physiological concentrations of Ca^2+ (1.5 mM), Mg^2+ (900 μM), glutamine (1.0 mM); GIBCO; Grand Island, N.Y.), arginine (100 μM), amino acids (1×MEM)(GIBCO; Grand Island, N.Y.), and tetrahydrobiopterin (1.0 μM). Flow cytometric analyses were performed with an argon laser (488 nm) and emission light measured behind a filter transmitting 530/30 nm light on a FACCalibur, Becton Dickinson (San Jose, Calif.) with CELLQuest data acquisition and analysis software. PMNs or MNCs were gated by forward- and side-scatter. For each sample, 10,000 PMNs or MNCs were collected.
(§3) Statistical Analyses Intracellular oxidants in activated MNCs or PMNs treated with the three highest steroid concentrations or the L-NMMA treatment were compared to untreated activated MNCs or PMNs by Bonferroni corrected t-test.

[5] = test system: PMNs; test: Intracellular oxidants (DCF) in PMNs activated with cytokine cocktail and hemoglobin; assay type: cell-based, human; conditions: for effect on oxidants in PMNs: cytokine and hemoglobin activated PMNs
Method: as §1, §2, §3

[6] = test system: PMNs; test: Heme protein effect on DCFH oxidation in unstimulated, LPS and TNFα-, and PMA-stimulated PMNs, with or without NOS inhibitors, SOD or antioxidants; assay type: cell-based, human; conditions: PMA-stimulated PMNs; L-NMMA 5 mM, L-NIO 5 mM, glutathione 25 μM and ascorbate 25 μM, human SOD 300 U/mL
[7] = test system: PMNs; test: Propidium iodide staining of oxidant-treated PMNs (cell membrane integrity); conditions: oxidant levels ≧10^−7 M
[8] = test system: PMNs; conditions: for decrease in DCFH oxidation: 10^−4 M oxidant; for increase in DCFH oxidation over control levels: 10^−5 M oxidant, 30 min
[9] = Organochlorine insecticide levels in serum of burn patients; assay type: in vivo, human; conditions: for mean peak serum levels: nonsurviving burn patients; for mean peak serum levels / mean peak serum levels higher than in surviving patients: PBD5; for mean peak serum levels higher than in surviving patients: nonsurviving patients
Method: Patients and Subjects. Analyses of xenoestrogens in archived serum were performed on samples from seven nonsurviving males and seven age- and burn-size matched surviving male burn patients admitted between 1991 and 1994 to the United States Army Institute of Surgical Research burn care facility. The criteria for selection of subjects were age (approximately 40-70 years), total burn surface area (≧25%), postburn survival (≧7 days) and lack of preburn disease. Inhalation injury was present in 6 of 7 surviving and 5 of 7 nonsurviving patients. In the non-surviving group, two patients died between postburn day (PBD) 7 and 11. Age-matched healthy males (n=12) were used as control subjects.
Levels of insecticides in serum of burn patients on postburn day (PBD) 1, 3, 5, 7, and 11 were determined in accordance with a previously reported method25. This method used a Dynamic Thermal Stripper (Environchem, Kemblesville, Pa.) to sparge insecticides from 50 μl of serum. The insecticides were collected on Tenax solid sorbent and subsequently thermally desorbed with a Unacon 810 (Environchem, Kemblesville, Pa.) into a HP 5890 gas chromatograph (Hewlett Packard, Palo Alto, Calif.) equipped with a SPB-608 30 M, fused silica capillary column (J & W Scientific, Folsom, Calif.) and an electron capture detector. Levels of insecticides in serum stored at −75° C. were determined by comparing responses to standard curves constructed from certified standards (Ultra Scientific, Kingstown, R.I.) spiked into a composite sample consisting of serum from 3 subjects, previously determined to have low levels of each insecticide. For consistency, each patient's samples were analyzed during the same day by postburn day (PBD 1, 3, 7, and 11). The detection limit for HE and OC was 76 and 56 pg/mL, respectively. A reference serum sample pooled from 3 patients having medium levels of each insecticide was measured 1-2 times during each day of analyses. […] Serum cholesterol and triglyceride concentrations were determined using Instrumentation Laboratory reagents and analyzed on a Monarch Clinical Chemistry System (Instrumentation Laboratories, Inc., Lexington, Mass.).

[10] = test system: lymphocytes; test: HE effect on lymphocyte membrane integrity in mixed PMN/lymphocyte preparation (propidium iodide)
Method: HE effects on surrounding lymphocyte membrane integrity mediated by PMN-derived NO were determined by cytofluorometric measurements of intracellular propidium iodide levels in a mixed PMN/lymphocyte preparation using 100,000 lymphocytes and PMN/lymphocyte ratios of 0/1, 2/1, 4/1, 10/1). For comparison some aliquots of PMNs were loaded with L-NMMA (5 mM) or 2-(4-carboxyphenyl)-4,4,5,5-tetramethyl imidazoline-1-oxyl-3-oxide (carboxy-PTIO) (5 mM) (Calbiochem, La Jolla, Calif.), a NO scavenger, prior to incubating leukocytes with HE (1 nM) for 40 min.
as §4

[11] = TNFα 10 ng/mL added to HE-treated PMNs

TNFα
increase in amplitude of HE DNA strand break Gaussian curve ([1]; TNFα added to HE): 445%
left shift of HE DNA strand break Gaussian curve ([1]; TNFα added to HE): 10 fold
increase in amplitude of HE intracellular oxidant Gaussian curve [2, 11]: 60%
left shift of HE intracellular oxidant Gaussian curve [2, 11]: 10 fold

oxyhemoglobin [oxyHb]
less efficient than oxyMb in inducing DCFH oxidation [3]: 20-40%

C[C@]12CC[C@@H]3c4ccc(O)cc4C[C@@H](CCCCCCCCC[S+]([O-])CCCC(F)(F)C(F)(F)F)[C@H]3[C@@H]1CC[C@@H]2O (stereo partly drawn) [ICI 182,780, reference compound]
effect on HE-induced DNA strand breaks [1]: nonsignificant trend for attenuating HE-induced DNA strand breaks
effect on HE-induced intracellular oxidants (NO) ([2]; L-NMMA 5 mM, tamoxifen 200 nM): completely eliminated the HE-induced increase in NO

CC(=N)NCCCC[C@H](N)C(=O)O [L-NIL, L-N^6-(-1-Iminoethyl)lysine]
effect on oxidants in activated MNCs ([4]; L-NIL 10 μM): negligible effects on activated MNCs and PMNs
effect on oxidants in activated PMNs ([5]; L-NIL 10 μM): negligible effects on activated MNCs and PMNs

human erythrocyte Cu, Zn SOD: superoxide scavenger, superoxide dismutase from human erythrocytes
effect on oxyMb-induced DCFH oxidation [6]: increased oxyMb induced-DCFH oxidation

OO [H2O2, hydrogen peroxide]
PMNs staining positive for propidium iodide [7]: 87%
decrease in DCFH oxidation [8]: approximately 25%
increase in DCFH oxidation over control levels [8]: 25 fold

C[C@]12CCC(=O)C=C1CC[C@@H]1[C@@H]2[C@@H](O)C[C@@]2(C)[C@H]1CC[C@]2(O)C(=O)CO [cortisol]
time dependence of oxidant reduction in MNCs ([4]; 5 h versus 1 h of stimulation): reduced oxidant levels in MNCs to a greater extent after 5 h as compared to 1 h of stimulation
dampening effect on oxidant production ([4]; MNCs, after 1 h): 20%
effect on oxidants in PMNs [5]: modest trend for reducing oxidant levels after 5 h

O.O.O.O.[Cl][Fe][Cl] [FeCl2.4H2O, reference compound]
effect on DCFH oxidation [3]: produced a decrease in DCFH oxidation above 30 μg/mL

ClC1=C(Cl)C2(Cl)C3C4OC4C(Cl)C3C1(Cl)C2(Cl)Cl (stereo not drawn) [HE]
mean peak serum levels [9]: 215 pg/ml and 0.55 nM
mean peak serum levels higher than in surviving patients [9]: approximately 90%
HE concentration of peak response of DNA strand breaks, Gaussian curve ([1]; 2 h incubation): approximately 5 nM
HE concentration of peak response of DNA strand breaks, with TNFα ([1]; co-incubation with TNFα): approximately 0.3 nM
HE concentration of peak response of intracellular oxidants, with TNFα ([2]; co-incubation with TNFα 10 ng/mL): approximately 0.1 nM
effect on cell membrane damage in lymphocytes ([10]; HE 1 nM, PMN/lymphocyte ratios above 2): increased cell membrane damage in the lymphocytes

ClC(Cl)=C(c1ccc(Cl)cc1)c1ccc(Cl)cc1 [DDE]
increase of mean serum level ([9]; nonsurvivors, by PBD 11): 2.5 times
mean serum level ([9]; nonsurvivors, by PBD 11): 3667 pg/mL and 183 nM

hemoglobin: human hemoglobin (100 μg/mL)
increase of mean oxidized DCF over unstimulated background ([4]; MNCs, after 1 h, data not shown): 41%
increase of mean intracellular oxidized DCF over unstimulated background ([4]; MNCs, after 5 h): 259%
increase of mean oxidized DCF over unstimulated background ([5]; PMNs, after 1 h, data not shown): 172%
increase of mean intracellular oxidized DCF over unstimulated background ([5]; PMNs, after 5 h): 197%

C[C@]12CC[C@@H]3c4ccc(O)cc4CC[C@H]3[C@@H]1CC[C@@H]2O [17β-E2, 17β-estradiol]
dampening effect on oxidant production ([4]; MNCs, after 1 h): 65%
effect on oxidants in PMNs [5]: no effect on oxidants

CC(=O)[C@H]1CC[C@H]2[C@@H]3CCC4=CC(=O)CC[C@]4(C)[C@H]3CC[C@]12C [P4, progesterone]
dampening effect on oxidant production ([4]; MNCs, after 1 h): 0%
effect on oxidants in PMNs [5]: no effect on oxidants

CCN(CC)/[N+]([O-])=N/O.CCNCC [DEANO, diethylamine nitric oxide]
PMNs staining positive for propidium iodide [7]: 87%
decrease in DCFH oxidation [8]: approximately 25%
increase in DCFH oxidation over control levels [8]: 25 fold

CC1(C)N([O])C(c2ccc(C(=O)O)cc2)=[N+]([O-])C1(C)C [PTIO, 2-(4-carboxyphenyl)-4,4,5,5-tetramethyl imidazoline-1-oxyl-3-oxide, reference compound]
effect on HE-induced cell membrane damage in lymphocytes ([10]; co-incubation with HE 1 nM): attenuated the HE-induced cell membrane damage in the lymphocytes

CC/C(=C(\c1ccccc1)c1ccc(OCCN(C)C)cc1)c1ccccc1 [tamoxifen, reference compound]
effect on HE-induced DNA strand breaks [1]: nonsignificant trend for attenuating HE-induced DNA strand breaks
effect on 17β-E2-induced intracellular oxidants (NO) ([2]; L-NMMA 5 mM, tamoxifen 200 nM): completely inhibited the 17β-E2-induced NO levels
effect on HE-induced intracellular oxidants (NO) ([2]; L-NMMA 5 mM, tamoxifen 200 nM): completely eliminated the HE-induced increase in NO

ClC1=C(Cl)[C@]2(Cl)[C@H]3[C@H]([C@H](Cl)[C@]4(Cl)O[C@H]34)[C@@]1(Cl)C2(Cl)Cl [OC]
mean peak serum levels [9]: 677 pg/ml and 1.59 nM
mean peak serum levels higher than in surviving patients [9]: approximately 90%
